From ChEMBL document CHEMBL4825690, “Synthesis and biological evaluation of chalcone-polyamine conjugates as novel vectorized agents in colorectal and prostate cancer chemotherapy” (Eur J Med Chem, 2021)

Tests used:
Format in all cases: functional, cell-based
DU-145 = experiment: Antiproliferative activity against human DU145 cells assessed as reduction in cell viability incubated for 48 hr by MTT assay; conditions: DU-145, 48 h
PC-3 = experiment: Antiproliferative activity against human PC3 cells assessed as reduction in cell viability incubated for 48 hr by MTT assay; conditions: PC-3, 48 h
HT-29 = experiment: Antiproliferative activity against human HT29 cells assessed as reduction in cell viability incubated for 48 hr by MTT assay; conditions: HT-29, 48 h
HCT-116 = experiment: Antiproliferative activity against human HCT116 cells assessed as reduction in cell viability incubated for 48 hr by MTT assay; conditions: HCT-116, 48 h

Row | Structure (SMILES) | IC50 (DU-145) [µM] | IC50 (PC-3) [µM] | IC50 (HT-29) [µM] | IC50 (HCT-116) [µM]
1 | COc1cc(C(=O)/C=C/c2ccc(OCCCNCCCCNCCCN)cc2)cc(OC)c1OC | 20.6 | 32.6 | 31.8 | 20.3
2 | COc1cc(C(=O)/C=C/c2ccc(OCCCNCCCCN)cc2)cc(OC)c1OC | 8.4 | 20.1 | 20.2 | 12.4
3 | COc1cc(C(=O)/C=C/c2ccc(OCCCNCCCN)cc2)cc(OC)c1OC | 10.2 | 20.4 | 13.7 | 21.9
4 | COc1cc(C(=O)/C=C/c2ccc(OCCCNCCCNCCCCNCCCN)cc2)cc(OC)c1OC | 10.8 | 14 | > 40 | 11.8
